Experimental data taken from publication PMC4629130, “Human Odorant Reception in the Common Bed Bug, Cimex lectularius” (Scientific Reports, 2015).

Assays:
ClOr2/Orco = molecular target: T1, ClOr2/Orco (Cimex lectularius, UniProt A0A8I6SBL2); test: two-electrode voltage clamp, Xenopus oocytes; type: cell-based
T1 construct: entire coding regions of ClOr2 and ClOrco in pT7Ts, cRNAs co-injected into Xenopus oocytes; heteromeric receptor channel; clusters with Rhodnius RpOr105; with Odorant receptor coreceptor

ClOr1/Orco = molecular target: T2, ClOr1/Orco (Cimex lectularius, UniProt A0A8I6SE58); test: two-electrode voltage clamp, Xenopus oocytes; type: cell-based
T2 construct: entire coding regions of ClOr1 and ClOrco in pT7Ts, cRNAs co-injected into Xenopus oocytes; heteromeric receptor channel; with Odorant receptor coreceptor
T2 sequence (A0A8I6SE58 1-379): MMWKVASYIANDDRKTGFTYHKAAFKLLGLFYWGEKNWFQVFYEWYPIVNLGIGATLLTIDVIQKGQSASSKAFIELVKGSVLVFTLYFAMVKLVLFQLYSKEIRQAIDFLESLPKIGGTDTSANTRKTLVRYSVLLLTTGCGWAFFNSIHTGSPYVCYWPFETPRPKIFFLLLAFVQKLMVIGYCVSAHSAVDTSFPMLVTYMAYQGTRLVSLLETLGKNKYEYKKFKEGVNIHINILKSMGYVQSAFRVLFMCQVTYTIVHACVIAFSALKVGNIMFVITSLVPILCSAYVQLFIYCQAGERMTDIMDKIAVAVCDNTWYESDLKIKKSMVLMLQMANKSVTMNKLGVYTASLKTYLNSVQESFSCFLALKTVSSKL
T2 sequence (A0A0A0U7J0 1-451 partner): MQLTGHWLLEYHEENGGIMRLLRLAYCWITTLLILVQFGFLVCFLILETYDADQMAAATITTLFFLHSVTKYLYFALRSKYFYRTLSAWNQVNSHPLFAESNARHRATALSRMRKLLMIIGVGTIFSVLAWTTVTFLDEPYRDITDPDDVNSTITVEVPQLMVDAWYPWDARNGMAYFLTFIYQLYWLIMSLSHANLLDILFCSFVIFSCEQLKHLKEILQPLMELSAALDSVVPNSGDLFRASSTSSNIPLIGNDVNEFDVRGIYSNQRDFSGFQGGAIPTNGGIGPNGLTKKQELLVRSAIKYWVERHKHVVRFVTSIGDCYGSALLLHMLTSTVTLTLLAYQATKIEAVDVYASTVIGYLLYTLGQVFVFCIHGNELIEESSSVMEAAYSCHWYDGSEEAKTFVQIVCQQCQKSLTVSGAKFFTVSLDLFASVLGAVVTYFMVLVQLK

T1 sequence (A0A8I6SBL2 1-382): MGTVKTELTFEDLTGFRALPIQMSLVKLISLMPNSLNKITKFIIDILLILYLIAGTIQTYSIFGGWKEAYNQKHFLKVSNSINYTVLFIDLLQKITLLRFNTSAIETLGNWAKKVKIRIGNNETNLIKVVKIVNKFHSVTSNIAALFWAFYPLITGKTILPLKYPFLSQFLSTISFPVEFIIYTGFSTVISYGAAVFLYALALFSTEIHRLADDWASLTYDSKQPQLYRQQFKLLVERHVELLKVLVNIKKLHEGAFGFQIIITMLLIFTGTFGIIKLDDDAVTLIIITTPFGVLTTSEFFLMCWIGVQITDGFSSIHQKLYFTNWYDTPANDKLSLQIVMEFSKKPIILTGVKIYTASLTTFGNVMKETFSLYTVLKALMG
T1 sequence (A0A0A0U7J0 1-451 partner): as the sequence (A0A0A0U7J0 1-451 partner) above

SMILES	EC50 (ClOr2/Orco) [µM]	EC50 (ClOr1/Orco) [µM]
CCCCCCCCCC=O [decanal]	6.42	–
CCCCCCCCC=O [nonanal]	–	0.519
CCCCCCCC=O [octanal]	–	3.4
